Holding throughout (assay): Kinase selectivity, P33-radiolabeled assay
Holding throughout (type): biochemical
Common to all, as to details: 10 μM ATP

One experiment deals with T1, Aurora C (Homo sapiens, UniProt Q9UQB9).
T1 construct: purchased Reaction Biology Corp
T1 sequence (Q9UQB9 1-309): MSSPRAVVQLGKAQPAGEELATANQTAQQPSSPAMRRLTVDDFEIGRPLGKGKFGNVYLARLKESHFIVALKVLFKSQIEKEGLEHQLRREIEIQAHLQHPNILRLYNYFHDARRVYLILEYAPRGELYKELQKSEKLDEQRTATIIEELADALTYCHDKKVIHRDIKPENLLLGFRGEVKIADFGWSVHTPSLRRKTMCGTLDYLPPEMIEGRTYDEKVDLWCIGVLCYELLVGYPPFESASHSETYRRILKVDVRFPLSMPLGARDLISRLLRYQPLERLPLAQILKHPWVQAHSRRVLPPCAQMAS
Put shortly: (§1)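 Reactions contained 10 μM ATP and 10 μM test compound, each run in duplicate. Kinase activity is expressed as a percentage of DMSO-treated controls.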

Another experiment concerns the target T2, BMX/ETK (Homo sapiens, UniProt P51813).
T2 construct: purchased Reaction Biology Corp
T2 sequence (P51813 1-675): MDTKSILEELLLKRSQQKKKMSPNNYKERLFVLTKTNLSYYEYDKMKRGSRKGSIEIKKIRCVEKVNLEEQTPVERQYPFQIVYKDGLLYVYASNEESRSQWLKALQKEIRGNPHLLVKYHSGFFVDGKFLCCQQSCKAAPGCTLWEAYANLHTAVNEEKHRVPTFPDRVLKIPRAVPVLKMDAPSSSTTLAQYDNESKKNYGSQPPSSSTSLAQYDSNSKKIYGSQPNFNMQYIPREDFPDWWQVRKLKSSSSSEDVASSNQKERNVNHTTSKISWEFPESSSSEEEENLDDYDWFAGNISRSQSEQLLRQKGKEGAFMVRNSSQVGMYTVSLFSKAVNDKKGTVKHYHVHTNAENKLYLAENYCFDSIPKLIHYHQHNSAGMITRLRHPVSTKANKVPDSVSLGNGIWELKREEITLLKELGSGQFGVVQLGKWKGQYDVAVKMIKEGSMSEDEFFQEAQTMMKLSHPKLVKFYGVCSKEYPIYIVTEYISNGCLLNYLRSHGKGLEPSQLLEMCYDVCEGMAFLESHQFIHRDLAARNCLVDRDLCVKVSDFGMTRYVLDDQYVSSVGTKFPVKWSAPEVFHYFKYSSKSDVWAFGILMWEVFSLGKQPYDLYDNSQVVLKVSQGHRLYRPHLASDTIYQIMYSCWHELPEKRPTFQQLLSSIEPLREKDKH
Put shortly: as §1

In a further experiment the target is T3, BRSK1 (Homo sapiens, UniProt Q8TDC3).
T3 construct: purchased Reaction Biology Corp
T3 sequence (Q8TDC3 1-778): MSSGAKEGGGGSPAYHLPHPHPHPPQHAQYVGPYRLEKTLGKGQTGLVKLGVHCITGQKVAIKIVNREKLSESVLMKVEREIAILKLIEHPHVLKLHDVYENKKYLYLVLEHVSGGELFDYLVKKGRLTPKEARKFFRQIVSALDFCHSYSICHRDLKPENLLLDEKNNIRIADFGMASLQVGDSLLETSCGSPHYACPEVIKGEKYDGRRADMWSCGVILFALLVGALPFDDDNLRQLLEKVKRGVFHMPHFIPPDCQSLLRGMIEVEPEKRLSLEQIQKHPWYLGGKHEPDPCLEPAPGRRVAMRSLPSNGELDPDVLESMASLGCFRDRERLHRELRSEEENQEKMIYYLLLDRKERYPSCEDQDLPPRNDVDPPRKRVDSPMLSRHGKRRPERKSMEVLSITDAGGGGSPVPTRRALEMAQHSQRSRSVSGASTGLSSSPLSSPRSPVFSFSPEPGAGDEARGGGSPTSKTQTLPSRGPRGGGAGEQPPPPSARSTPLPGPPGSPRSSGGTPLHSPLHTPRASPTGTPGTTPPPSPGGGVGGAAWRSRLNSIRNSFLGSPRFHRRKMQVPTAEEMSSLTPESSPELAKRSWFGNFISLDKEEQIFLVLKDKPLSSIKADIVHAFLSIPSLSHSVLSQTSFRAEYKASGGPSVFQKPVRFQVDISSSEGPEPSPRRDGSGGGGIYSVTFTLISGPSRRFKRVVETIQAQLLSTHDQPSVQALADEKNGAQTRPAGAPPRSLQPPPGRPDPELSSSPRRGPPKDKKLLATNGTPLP
A digest of the protocol:
as §1

The next experiment deals with T4, EGFR (Homo sapiens, UniProt P00533).
T4 construct: purchased Reaction Biology Corp
Put shortly:
as §1

The target in another experiment is T5, EPHA7 (Homo sapiens, UniProt Q15375).
T5 construct: purchased Reaction Biology Corp
A digest of the protocol:
as §1

Another experiment addresses T6, JNK2 (Homo sapiens, UniProt P45984).
T6 construct: purchased Reaction Biology Corp
Put shortly: as §1

The target in a further experiment is T7, MAPKAPK5/PRAK (Homo sapiens, UniProt Q8IW41).
T7 construct: purchased Reaction Biology Corp
T7 sequence (Q8IW41 1-473): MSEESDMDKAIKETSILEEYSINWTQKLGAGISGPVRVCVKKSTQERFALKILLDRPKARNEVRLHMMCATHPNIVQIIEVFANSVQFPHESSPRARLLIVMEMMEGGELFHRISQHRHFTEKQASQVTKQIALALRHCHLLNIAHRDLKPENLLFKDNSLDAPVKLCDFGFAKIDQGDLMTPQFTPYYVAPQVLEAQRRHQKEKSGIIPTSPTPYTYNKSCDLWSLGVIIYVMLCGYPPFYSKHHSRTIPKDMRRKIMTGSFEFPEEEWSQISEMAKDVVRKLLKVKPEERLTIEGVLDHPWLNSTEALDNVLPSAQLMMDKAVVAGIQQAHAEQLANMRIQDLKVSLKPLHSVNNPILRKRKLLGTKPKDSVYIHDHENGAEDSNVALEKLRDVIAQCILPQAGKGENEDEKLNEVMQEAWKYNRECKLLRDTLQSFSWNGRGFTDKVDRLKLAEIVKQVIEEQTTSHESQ
Put shortly:
as §1

Another experiment addresses T8, SRMS (Homo sapiens, UniProt Q9H3Y6).
T8 construct: purchased Reaction Biology Corp
Put shortly:
as §1

[1] abbreviates: read-out: % Enzyme Activity (relative to DMSO controls) AVG.
[2] abbreviates: read-out: % Enzyme Activity (relative to DMSO controls) Data 1.
[3] abbreviates: read-out: % Enzyme Activity (relative to DMSO controls) Data 2.

This passage reports remaining activity results from PMC4979471 (Cell Death Discovery, 2015).

SMILES strings stand for the structures. Read-outs that look alike come from different tables or passages of the source.

T5 sequence (Q15375 28-998): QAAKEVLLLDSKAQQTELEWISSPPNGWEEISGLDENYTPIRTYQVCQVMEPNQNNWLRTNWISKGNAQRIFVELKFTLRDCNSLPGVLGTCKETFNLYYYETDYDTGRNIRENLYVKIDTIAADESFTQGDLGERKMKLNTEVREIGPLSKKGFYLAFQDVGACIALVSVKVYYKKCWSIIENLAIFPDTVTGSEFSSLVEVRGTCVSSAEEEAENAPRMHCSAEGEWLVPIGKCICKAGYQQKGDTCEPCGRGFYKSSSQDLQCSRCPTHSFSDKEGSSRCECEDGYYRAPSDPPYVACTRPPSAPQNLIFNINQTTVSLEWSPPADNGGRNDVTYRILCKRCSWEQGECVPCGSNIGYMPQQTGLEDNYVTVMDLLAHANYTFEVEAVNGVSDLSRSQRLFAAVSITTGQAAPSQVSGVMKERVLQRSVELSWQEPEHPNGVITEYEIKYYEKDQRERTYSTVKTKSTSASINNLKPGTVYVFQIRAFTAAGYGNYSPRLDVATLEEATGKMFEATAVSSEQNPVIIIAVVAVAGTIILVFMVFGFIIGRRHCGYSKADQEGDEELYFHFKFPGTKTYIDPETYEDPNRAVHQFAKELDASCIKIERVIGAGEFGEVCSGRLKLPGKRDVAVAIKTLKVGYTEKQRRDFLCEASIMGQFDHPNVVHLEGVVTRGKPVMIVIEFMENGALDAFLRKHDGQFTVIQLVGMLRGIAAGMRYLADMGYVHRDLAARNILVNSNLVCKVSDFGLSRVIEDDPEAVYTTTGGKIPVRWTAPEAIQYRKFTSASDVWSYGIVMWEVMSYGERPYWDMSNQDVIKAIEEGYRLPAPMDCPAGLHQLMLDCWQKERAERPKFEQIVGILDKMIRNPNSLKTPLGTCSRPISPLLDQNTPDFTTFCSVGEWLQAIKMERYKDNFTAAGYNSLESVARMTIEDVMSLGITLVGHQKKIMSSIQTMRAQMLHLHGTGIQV
T4 sequence (P00533 25-1210): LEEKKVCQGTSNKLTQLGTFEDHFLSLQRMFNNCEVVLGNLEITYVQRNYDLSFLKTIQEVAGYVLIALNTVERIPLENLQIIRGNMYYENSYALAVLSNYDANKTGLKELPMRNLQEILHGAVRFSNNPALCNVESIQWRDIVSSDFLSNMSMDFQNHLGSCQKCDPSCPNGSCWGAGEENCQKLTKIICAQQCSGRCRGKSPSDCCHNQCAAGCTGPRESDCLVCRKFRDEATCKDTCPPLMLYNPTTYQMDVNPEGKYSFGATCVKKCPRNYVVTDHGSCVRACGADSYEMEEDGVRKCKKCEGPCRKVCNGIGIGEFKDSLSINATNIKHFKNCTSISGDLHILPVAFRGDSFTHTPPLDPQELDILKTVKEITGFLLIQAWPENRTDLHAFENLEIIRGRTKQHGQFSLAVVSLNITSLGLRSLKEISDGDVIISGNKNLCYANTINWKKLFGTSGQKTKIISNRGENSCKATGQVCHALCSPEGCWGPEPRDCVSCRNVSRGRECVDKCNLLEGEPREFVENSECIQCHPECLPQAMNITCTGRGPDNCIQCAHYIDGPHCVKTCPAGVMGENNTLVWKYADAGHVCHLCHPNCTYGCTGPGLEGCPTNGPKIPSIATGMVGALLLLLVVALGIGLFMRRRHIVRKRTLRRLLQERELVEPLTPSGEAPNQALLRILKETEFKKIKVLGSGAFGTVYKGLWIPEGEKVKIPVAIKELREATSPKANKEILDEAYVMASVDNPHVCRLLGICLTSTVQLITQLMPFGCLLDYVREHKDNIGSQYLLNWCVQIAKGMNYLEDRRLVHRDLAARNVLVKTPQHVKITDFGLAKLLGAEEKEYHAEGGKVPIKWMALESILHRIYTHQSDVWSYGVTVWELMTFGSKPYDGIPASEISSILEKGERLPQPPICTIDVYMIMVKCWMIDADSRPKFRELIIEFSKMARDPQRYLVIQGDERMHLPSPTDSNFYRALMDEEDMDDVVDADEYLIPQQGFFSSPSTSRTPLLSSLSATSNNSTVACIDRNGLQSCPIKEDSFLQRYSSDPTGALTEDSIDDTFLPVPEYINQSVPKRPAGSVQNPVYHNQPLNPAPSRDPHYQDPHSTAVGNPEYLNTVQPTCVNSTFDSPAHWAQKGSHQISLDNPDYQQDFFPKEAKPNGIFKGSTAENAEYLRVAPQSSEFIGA
T8 sequence (Q9H3Y6 whole entry): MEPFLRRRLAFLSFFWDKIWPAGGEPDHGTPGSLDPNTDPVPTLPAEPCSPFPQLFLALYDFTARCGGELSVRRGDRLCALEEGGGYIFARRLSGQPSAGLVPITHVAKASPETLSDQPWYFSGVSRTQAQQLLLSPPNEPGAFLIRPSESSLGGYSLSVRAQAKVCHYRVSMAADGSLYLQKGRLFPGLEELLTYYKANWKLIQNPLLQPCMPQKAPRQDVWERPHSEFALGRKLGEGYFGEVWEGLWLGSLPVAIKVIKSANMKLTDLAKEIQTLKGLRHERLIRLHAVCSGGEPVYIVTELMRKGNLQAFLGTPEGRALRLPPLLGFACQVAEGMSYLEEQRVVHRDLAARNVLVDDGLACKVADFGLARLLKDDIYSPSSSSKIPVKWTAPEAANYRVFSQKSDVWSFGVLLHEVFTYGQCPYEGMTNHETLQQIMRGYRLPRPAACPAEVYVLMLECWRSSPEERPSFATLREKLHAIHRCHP
T6 sequence (P45984 whole entry): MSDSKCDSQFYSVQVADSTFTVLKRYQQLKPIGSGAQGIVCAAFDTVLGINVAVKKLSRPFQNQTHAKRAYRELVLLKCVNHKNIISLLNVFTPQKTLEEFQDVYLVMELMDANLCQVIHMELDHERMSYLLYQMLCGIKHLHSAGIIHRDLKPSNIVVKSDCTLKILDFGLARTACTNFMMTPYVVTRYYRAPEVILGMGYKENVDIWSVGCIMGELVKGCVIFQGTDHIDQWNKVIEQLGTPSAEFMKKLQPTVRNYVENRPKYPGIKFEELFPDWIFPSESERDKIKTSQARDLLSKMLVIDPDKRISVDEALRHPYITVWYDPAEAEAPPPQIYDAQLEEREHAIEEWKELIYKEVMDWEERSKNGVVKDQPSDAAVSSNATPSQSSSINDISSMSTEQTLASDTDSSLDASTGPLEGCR

For `CC(C)(C)C(=O)N1N=CC[C@H]1c1ccccc1` [GSK′963], the remaining activity at 10 µM stood at 96.9% on Aurora C (setting [1]); 98.4% at Aurora C (setting [2]); 95.5% on Aurora C (setting [3]); 99.9% at BMX/ETK (setting [1]); 94.5% on BMX/ETK (setting [2]); 105% on BMX/ETK (setting [3]). Also, the remaining activity at 10 µM on BRSK1 (setting [1]) turned out to be 95.2%; at BRSK1 (setting [2]), 96.9%; at BRSK1 (setting [3]), 93.5%; at EGFR (setting [1]), 106%; on EGFR (setting [2]) it was 105%; at EGFR (setting [3]), 108%. Besides, the remaining activity at 10 µM was 111% on EPHA7 (setting [1]); 109% on EPHA7 (setting [2]); 112% at EPHA7 (setting [3]); 100% at JNK2 (setting [1]); 96.4% at JNK2 (setting [2]); 104% on JNK2 (setting [3]). Also, the remaining activity at 10 µM at MAPKAPK5/PRAK (setting [1]) was 116%; on MAPKAPK5/PRAK (setting [2]) it was 115%; on MAPKAPK5/PRAK (setting [3]), 117%; at SRMS (setting [1]) it was 101%; on SRMS (setting [2]) it was 98.6%; at SRMS (setting [3]) it was 103%.
